Source: the NIST ThermoML archive (doi:10.1016/j.tca.2018.03.018)
± gives the expanded uncertainty stated by the source.

Key:
[1] = Crystal; DSC
[2] = Molar enthalpy of transition or fusion; conditions: Crystal; DSC

CCCCCCCCCCCCCCCCCC(=O)O [octadecanoic acid]
Triple point temperature [1]: 325.66 ± 1 K | Molar enthalpy of transition or fusion [2]: 12 ± 0.335 kcal/mol
